How the values were obtained:
Murine cardiomyocytes = test: Apoptosis induced by ROS after hypoxia/reperfusion, Annexin-V flow cytometry; assay type: cell-based; details: cells cultured in hypoxia, end of reperfusion period, vs controls
p38 MAPK protein = test: Dephosphorylation of p38 MAPK protein in serum-deprived PC12 cells (Western blotting); assay type: cell-based, rat; details: serum deprivation 6 hours, NGF 10 ng/ml or compounds 10 μm, 30 minutes, WB
Protocol: PC12 cells were cultured in the absence of serum, exactly as described above in example 5, and treated for 30 minutes with NGF, at the final concentration of 10 ng/ml, or alternatively with the compounds of formula I, at the final concentration of 10 μm; the cells were subsequently lysed and analysed by WB, using antibodies specific for the phosphorylated form of the enzyme.
A homogeneity control of protein load on gel, normalisation with β-actin is reported. (FIG. 3).

MKP-1 protein = test: Induction of MKP-1 protein expression in PC12 cells (Western blotting); assay type: cell-based, rat; details: serum-free, NGF 10 ng/ml or compounds 10 μm, 30 minutes, WB densitometry
Protocol: PC12 cells were cultured in the absence of serum, exactly as described above in example 5, and then treated for 30 minutes with NGF, at the final concentration of 10 ng/ml, or alternatively with the compounds of formula (I), at the final concentration of 10 μm; subsequently, the cells were lysed, and analysed by WB, using antibodies specific for the MKP-1 protein.

TrkA receptor = target: T1, TrkA receptor (Rattus norvegicus, UniProt P35739); test: Autophosphorylation of the TrkA receptor in PC12 cells (Western blotting); assay type: cell-based; details: serum-free 6 hours, NGF 10 ng/ml or compounds 10 μm, 20 minutes, WB, ratio to total TrkA
T1 construct: Autophosphorylation of the TrkA receptor on PC12 cells when incubated with NGF or with a mimetic; endogenous in cells; host or cells: PC12 rat pheochromocytoma cells
T1 sequence (P35739 33-799): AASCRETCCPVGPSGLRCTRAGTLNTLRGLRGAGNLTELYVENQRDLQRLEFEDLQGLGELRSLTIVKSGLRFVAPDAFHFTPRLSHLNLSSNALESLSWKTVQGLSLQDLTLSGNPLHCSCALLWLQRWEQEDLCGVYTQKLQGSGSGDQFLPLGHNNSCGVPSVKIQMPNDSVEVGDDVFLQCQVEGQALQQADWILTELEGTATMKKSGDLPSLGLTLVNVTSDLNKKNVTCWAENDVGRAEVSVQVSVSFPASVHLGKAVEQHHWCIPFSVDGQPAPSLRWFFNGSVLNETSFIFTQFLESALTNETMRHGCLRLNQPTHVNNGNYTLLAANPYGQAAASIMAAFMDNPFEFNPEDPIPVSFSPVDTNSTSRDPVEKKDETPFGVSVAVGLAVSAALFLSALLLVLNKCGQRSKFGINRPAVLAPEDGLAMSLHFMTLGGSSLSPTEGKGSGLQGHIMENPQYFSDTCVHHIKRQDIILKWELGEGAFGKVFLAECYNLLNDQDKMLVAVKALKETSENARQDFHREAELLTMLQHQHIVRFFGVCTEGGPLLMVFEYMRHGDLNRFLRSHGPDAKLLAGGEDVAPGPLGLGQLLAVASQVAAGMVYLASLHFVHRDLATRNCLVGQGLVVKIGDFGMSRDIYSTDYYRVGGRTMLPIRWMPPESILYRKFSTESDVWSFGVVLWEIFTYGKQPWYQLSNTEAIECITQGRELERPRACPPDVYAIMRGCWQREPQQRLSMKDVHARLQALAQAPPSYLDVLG
Protocol: Cells of the continuous PC12 pheochromocytoma rat line were cultured at a concentration of 4×10^5/ml in RPMI 1640 medium, supplemented with 5% glutamine, antibiotics, and in the absence of serum, in 24-well plates for 6 hours. Subsequently, NGF at a final concentration of 10 ng/ml or alternatively the compounds of formula (I), at the final concentration of 10 μm, were added to these cultures. After 20 minutes, the cells were thus lysed in RIPA buffer (20 mM Tris-HCl, pH 7.5, 150 mM NaCl, 1 mM Na2 EDTA, 1 mM EGTA, 1% NP-40, 1% sodium deoxycholate, 25 mM sodium pyrophosphate, 1 mMβ-glycerophosphate, 1 mM Na3VO4, 1 μg/ml leupeptin) for biochemical analysis by means of Western blotting (WB) technique, using specific antibodies for the phosphorylated form of the tyrosines 490, 674/675 or 785.
The graphs show the phosphorylation values of the indicated tyrosines (Y490, Y674/675, Y785), expressed as the ratio of the intensities of the bands observed in WB, developed with the respective anti-phosphotyrosine antibodies, to the band relating to the total TrkA protein. It is clear that the mimetics very strongly induce the phosphorylation of Y490 and much less that of the other tyrosines.

NGF: recombinant human NGF, the native neurotrophin used as comparator at 10 ng/ml
percentage of apoptotic cells (Annexin-V positive) (Murine cardiomyocytes): much lower percentage of apoptotic cells than the controls | dephosphorylation of p38 MAPK (p38 MAPK protein): marked dephosphorylation of p38 MAPK | MKP-1 protein levels (ratio MKP1 band to β-actin) (MKP-1 protein): significantly higher than the control | phosphorylation of TrkA tyrosines 490, 674/675, 785 (TrkA receptor): invariably induced the phosphorylation of all tyrosines
